The source of these data is US20220372014A1, “NEUROPROTECTIVE COMPOUNDS AND METHODS OF USE THEREOF” (The Johns Hopkins University, priority 2019, published 2022).

The subject of test [1] is HeLa cells or neuronal cells. The test can be described thus: Cell death assay of Example 3 (MNNG, alamarBlue; protection against parthanatos, Table 4). The test is classed as cell-based. Conditions: 1 μM test compound, MNNG-induced cell death, alamarBlue. As to the method:
Cell death assay: 200 μl of cells (HeLa cells or neuronal cells) culture (1×10^4 cells/well) were plated into the wells of a sterile 96-well cell culture plate. The cells were incubated for 18 hours at 37° C. The medium was removed and changed with 100 μl/well of 1 μM test compound. Incubate for 1 hours at 37° C. Ten μl of 500 μM MNNG (N-Methyl-N′-nitro-N-nitrosoguanidine) was added to each well. The medium was aspirated well and incubated for 15 min at 37° C. The cells were washed with the fresh medium. The medium was changed with 1 μM of test compound and incubated for 18 hours at 37° C. 10 μl/well of alamarBlue reagent was added directly to the well and incubated for 1 to 4 hours at 37° C. Fluorescence was measured using a fluorescence excitation wavelength of 560 nm and emission at 590 nm. The percentage of cell death was determined as the ratio of live to dead cells compared with the percentage of cell death in control wells to account for cell death attributed to mechanical stimulation of the cultures.

The next test addresses T1, MIF (Homo sapiens, UniProt P14174).
T1 sequence (P14174 1-115): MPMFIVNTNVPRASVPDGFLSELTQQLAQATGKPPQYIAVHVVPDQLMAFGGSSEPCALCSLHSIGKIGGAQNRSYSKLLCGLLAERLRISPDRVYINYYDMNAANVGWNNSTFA
The experiment in a line: Nuclease assay of Example 3 (MIF inhibitory activity, Table 4). The test is classed as biochemical. Set-up: (%) inhibition of MIF nuclease activity: concentration or dose not given beside the values. The conditions noted are these: nuclease assay of Example 3. The method, then:
A rapafucin library was synthesized as described in WO2017/136708 and Guo et al. (2018) Nat. Chem. 11:254-63. The hybrid macrocyclic library consisted of 45,000 compounds in pools of 15 individual compounds. The library compounds were screened for MIF inhibitory activity using a nuclease assay as detailed in FIG. 1 and below.
Nuclease assay: Human genomic DNA (200 ng/reaction, Promega), pcDNA (200 ng/reaction) or PS^30 and its related and non-related substrates (1 μM) was incubated with wild type MIF or its variants at a final concentration of 0.25-8 μM as indicated in 10 mM Tris-HCl buffer (pH 7.0) containing 10 mM MgCl2 and 1 mM DTT or specific buffer as indicated, for 1 h (with pcDNA and small DNA substrates) or 4 h (with human genomic DNA) at 37° C. The reaction was terminated with loading buffer containing 10 mM EDTA and incubation on ice. The human genomic DNA samples were immediately separated on a 1.2% pulse field certified agarose in 0.5×TBE buffer with initial switch time of 1.5 s and a final switch time of 3.5 s for 12 h at 6 V/cm. pcDNA samples were determined by 1% agarose gel. Small DNA substrates were separated on 15% or 25% TBE-urea polyacrylamide (PAGE) gel or 20% TBE PAGE gel. Then gel was stained with 0.5 μg/ml Ethidium Bromide (EtBr) followed by electrophoretic transfer to nylon membrane. Then, Biotin-labeled DNA is further detected by chemiluminescence using Chemiluminescent Nucleic Acid Detection Module (Thermo Scientific).
Structure-activity relationship (SAR) analysis was then conducted on the compounds identified as having MIF inhibitory activity. Compounds having the structure of Formula (I) were then synthesized as shown in Example 1 and tested for MIF inhibitory activity using the nuclease assay described herein and neuronal protection via a cell death assay as detailed below.

`COc1ccc(CC[C@H]2OC(=O)[C@@H]3CCCCN3C(=O)C(=O)C(C)(C)COC(=O)C=CCCN(C)C(=O)[C@@H]3CCCN3C(=O)[C@H](COC(C)(C)C)N(C)C(=O)[C@@H](c3ccccc3)NC(=O)[C@H](C)N(C)C(=O)COc3cc(F)cc2c3)cc1OC` (racemic) [compound 153]: the “(%) inhibition of cell death” value in test [1] worked out at 93.2%. Besides, the “(%) inhibition of MIF nuclease activity” value on MIF came out at 71.7%.
Taken in the same sequence, the figures for `COc1ccc(CC[C@H]2OC(=O)[C@@H]3CCCCN3C(=O)C(=O)C(C)(C)COC(=O)C=CCCN(C)C(=O)[C@@H]3CCCN3C(=O)[C@H](COC(C)(C)C)N(C)C(=O)[C@H](c3ccccc3)NC(=O)[C@H](C)N(C)C(=O)COc3cc(F)cc2c3)cc1OC` (racemic) [compound 154] were 46.2% and 38.2%.
For `COc1ccc(CC[C@H]2OC(=O)[C@@H]3CCCCN3C(=O)C(=O)C(C)(C)COC(=O)C=CCCN(C)C(=O)CNC(=O)[C@H](COC(C)(C)C)N(C)C(=O)[C@@H](CC(C)C)NC(=O)CN(C)C(=O)COc3cccc2c3)cc1OC` [compound 1], the “(%) inhibition of cell death” value in test [1] is 43.6%. Also, the “(%) inhibition of MIF nuclease activity” value at MIF turned out to be 25.3%.
For `COc1ccc(CC[C@H]2OC(=O)[C@@H]3CCCCN3C(=O)C(=O)C(C)(C)COC(=O)C=CCCN(C)C(=O)[C@H](C)NC(=O)[C@H](COC(C)(C)C)N(C)C(=O)[C@@H](CC(C)C)NC(=O)CN(C)C(=O)COc3cccc2c3)cc1OC` [compound 2], in that order: 41.1% and 15.3%.
Taken in the same sequence, the figures for `COc1ccc(CC[C@H]2OC(=O)[C@@H]3CCCCN3C(=O)C(=O)C(C)(C)COC(=O)C=CCCN(C)C(=O)[C@@H](C)NC(=O)[C@H](COC(C)(C)C)N(C)C(=O)[C@@H](CC(C)C)NC(=O)CN(C)C(=O)COc3cccc2c3)cc1OC` [compound 3] were 40.6% and 21.0%.
Taken in the same sequence, the figures for `CCC[C@@H]1NC(=O)[C@H](COC(C)(C)C)N(C)C(=O)[C@@H](CC(C)C)NC(=O)CN(C)C(=O)COc2cccc(c2)[C@@H](CCc2ccc(OC)c(OC)c2)OC(=O)[C@@H]2CCCCN2C(=O)C(=O)C(C)(C)COC(=O)C=CCCN(C)C1=O` [compound 4] were 39.7% and 10.8%.
Consider `COCC[C@@H]1NC(=O)[C@H](COC(C)(C)C)N(C)C(=O)[C@@H](CC(C)C)NC(=O)CN(C)C(=O)COc2cccc(c2)[C@@H](CCc2ccc(OC)c(OC)c2)OC(=O)[C@@H]2CCCCN2C(=O)C(=O)C(C)(C)COC(=O)C=CCCN(C)C1=O` [compound 5], for which, in test [1], the “(%) inhibition of cell death” value worked out at 41.7%. At MIF, the “(%) inhibition of MIF nuclease activity” value is 10.7%.
As for `COc1ccc(CC[C@H]2OC(=O)[C@@H]3CCCCN3C(=O)C(=O)C(C)(C)COC(=O)C=CCCN(C)C(=O)[C@H](CC(C)C)NC(=O)[C@H](COC(C)(C)C)N(C)C(=O)[C@@H](CC(C)C)NC(=O)CN(C)C(=O)COc3cccc2c3)cc1OC` [compound 6], the “(%) inhibition of cell death” value in test [1] was determined as 46.5%. For the same compound, at MIF, the “(%) inhibition of MIF nuclease activity” value stood at 30.8%.
For `COc1ccc(CC[C@H]2OC(=O)[C@@H]3CCCCN3C(=O)C(=O)C(C)(C)COC(=O)C=CCCN(C)C(=O)[C@@H](CC(C)C)NC(=O)[C@H](COC(C)(C)C)N(C)C(=O)[C@@H](CC(C)C)NC(=O)CN(C)C(=O)COc3cccc2c3)cc1OC` [compound 7], in that order: 54.5% and 30.1%.
On to `COc1ccc(CC[C@H]2OC(=O)[C@@H]3CCCCN3C(=O)C(=O)C(C)(C)COC(=O)C=CCCN(C)C(=O)[C@H](Cc3ccccc3)NC(=O)[C@H](COC(C)(C)C)N(C)C(=O)[C@@H](CC(C)C)NC(=O)CN(C)C(=O)COc3cccc2c3)cc1OC` [compound 8], for which the “(%) inhibition of cell death” value in test [1] worked out at 61.6%. Further, at MIF, the “(%) inhibition of MIF nuclease activity” value worked out at 31.3%.
Taken in the same sequence, the figures for `COc1ccc(CC[C@H]2OC(=O)[C@@H]3CCCCN3C(=O)C(=O)C(C)(C)COC(=O)C=CCCN(C)C(=O)[C@@H](Cc3ccccc3)NC(=O)[C@H](COC(C)(C)C)N(C)C(=O)[C@@H](CC(C)C)NC(=O)CN(C)C(=O)COc3cccc2c3)cc1OC` [compound 9] were 57.4% and 16.5%.
For `COc1ccc(CC[C@H]2OC(=O)[C@@H]3CCCCN3C(=O)C(=O)C(C)(C)COC(=O)C=CCCN(C)C(=O)[C@H](Cc3ccc(F)cc3)NC(=O)[C@H](COC(C)(C)C)N(C)C(=O)[C@@H](CC(C)C)NC(=O)CN(C)C(=O)COc3cccc2c3)cc1OC` [compound 10], in that order: 57.2% and 56.8%.
For `COc1ccc(CC[C@H]2OC(=O)[C@@H]3CCCCN3C(=O)C(=O)C(C)(C)COC(=O)C=CCCN(C)C(=O)[C@@H]3CCCN3C(=O)[C@H](COC(C)(C)C)N(C)C(=O)[C@@H](CC(C)C)NC(=O)CN(C)C(=O)COc3cccc2c3)cc1OC` [compound 11], in test [1], the “(%) inhibition of cell death” value came to 48.9%. The “(%) inhibition of MIF nuclease activity” value on MIF was 25.6%.
Taken in the same sequence, the figures for `COc1ccc(CC[C@H]2OC(=O)[C@@H]3CCCCN3C(=O)C(=O)C(C)(C)COC(=O)C=CCCN(C)C(=O)[C@H](CC3CCCCC3)NC(=O)[C@H](COC(C)(C)C)N(C)C(=O)[C@@H](CC(C)C)NC(=O)CN(C)C(=O)COc3cccc2c3)cc1OC` [compound 12] were 52.0% and 28.9%.
As to `COc1ccc(CC[C@H]2OC(=O)[C@@H]3CCCCN3C(=O)C(=O)C(C)(C)COC(=O)C=CCCN(C)C(=O)[C@H](Cc3ccc4ccccc4c3)NC(=O)[C@H](COC(C)(C)C)N(C)C(=O)[C@@H](CC(C)C)NC(=O)CN(C)C(=O)COc3cccc2c3)cc1OC` [compound 13], the “(%) inhibition of cell death” value in test [1] is recorded as 46.7%. Moreover, at MIF, the “(%) inhibition of MIF nuclease activity” value was found to be 21.9%.
As to `COc1ccc(CC[C@H]2OC(=O)[C@@H]3CCCCN3C(=O)C(=O)C(C)(C)COC(=O)C=CCCN(C)C(=O)[C@H](C(C)C)NC(=O)[C@H](COC(C)(C)C)N(C)C(=O)[C@@H](CC(C)C)NC(=O)CN(C)C(=O)COc3cccc2c3)cc1OC` [compound 14], the “(%) inhibition of cell death” value in test [1] amounted to 41.6%. The “(%) inhibition of MIF nuclease activity” value on MIF was 11.2%.
For `COc1ccc(CC[C@H]2OC(=O)[C@@H]3CCCCN3C(=O)C(=O)C(C)(C)COC(=O)C=CCCN(C)C(=O)C(c3ccccc3)NC(=O)[C@H](COC(C)(C)C)N(C)C(=O)[C@@H](CC(C)C)NC(=O)CN(C)C(=O)COc3cccc2c3)cc1OC` (stereo partly shown) [compound 15], in that order: 53.4% and 8.7%.
For `COc1ccc(CC[C@H]2OC(=O)[C@@H]3CCCCN3C(=O)C(=O)C(C)(C)COC(=O)C=CCCN(C)C(=O)[C@H](C)NC(=O)[C@H](COC(C)(C)C)N(C)C(=O)[C@H](Cc3ccc4ccccc4c3)NC(=O)[C@H](C)N(C)C(=O)COc3cccc2c3)cc1OC` [compound 17], in that order: 78.3% and 63.7%.
For the compound `COc1ccc(CC[C@H]2OC(=O)[C@@H]3CCCCN3C(=O)C(=O)C(C)(C)COC(=O)C=CCCN(C)C(=O)[C@@H]3CCCN3C(=O)[C@H](COC(=O)CCC(=O)OCCOCCOCCOCCNC(=O)CCCCC3SC[C@H]4NC(=O)N[C@@H]34)N(C)C(=O)C(c3ccccc3)NC(=O)[C@H](C)N(C)C(=O)COc3cccc2c3)cc1OC` (stereo partly shown) [compound 130], in test [1], the “(%) inhibition of cell death” value is reported as 48.2%.
